System: rabbits
Assay: Tissue proton T1 and T2 relaxation times 15 min after intravenous administration (dose-response)
Assay type: in vivo
Conditions: for T2 relaxation time / T1 relaxation time: 10 mHz RADX; for Approximate ED50, intravenous dose to reduce tissue T1 by 50% / Approximate ED50, intravenous dose to reduce tissue T2 by 50%: 15 min; for effect on hepatic and biliary T1 relaxation times: intravenous administration, Trihydrate
Method: All experiments employing the complex dihydrogen bis(N-[N′-(2,6-dimethylphenyl)carbamoylmethyl]iminodiaceto)manganese (II) trihydrate were conducted following intravenous administration to rabbits. A 10 mM solution of the complex was used in these studies. Rabbits were anesthetized with ketamine/xylazine prior to treatment. The results given were obtained with a 10 mHz RADX proton spin analyzer.
Dose-response experiments were conducted on rabbits following intravenous injection of 0.01-0.10 mmol of the complex/kg. […]

[1] = Lung, 15 min after 0.03 mmol/kg i.v., rabbits
[2] = Lung, 15 min after 0.08 mmol/kg i.v., rabbits
[3] = Lung, 15 min after 0.10 mmol/kg i.v., 1 rabbit
[4] = Pancreas, 15 min after 0.01 mmol/kg i.v., rabbits
[5] = Pancreas, 15 min after 0.03 mmol/kg i.v., rabbits
[6] = Pancreas, 15 min after 0.08 mmol/kg i.v., rabbits
[7] = Pancreas, 15 min after 0.10 mmol/kg i.v., 1 rabbit
[8] = Renal Cortex, 15 min after 0.01 mmol/kg i.v., rabbits
[9] = Renal Cortex, 15 min after 0.03 mmol/kg i.v., rabbits
[10] = Renal Cortex, 15 min after 0.08 mmol/kg i.v., rabbits
[11] = Renal Cortex, 15 min after 0.10 mmol/kg i.v., 1 rabbit
[12] = Renal Medulla, 15 min after 0.01 mmol/kg i.v., rabbits
[13] = Renal Medulla, 15 min after 0.03 mmol/kg i.v., rabbits
[14] = Renal Medulla, 15 min after 0.08 mmol/kg i.v., rabbits
[15] = Renal Medulla, 15 min after 0.10 mmol/kg i.v., 1 rabbit
[16] = Skeletal Muscle, 15 min after 0.01 mmol/kg i.v., rabbits
[17] = Skeletal Muscle, 15 min after 0.03 mmol/kg i.v., rabbits
[18] = Skeletal Muscle, 15 min after 0.08 mmol/kg i.v., rabbits
[19] = Skeletal Muscle, 15 min after 0.10 mmol/kg i.v., 1 rabbit
[20] = Small Intestine, 15 min after 0.01 mmol/kg i.v., rabbits
[21] = Small Intestine, 15 min after 0.03 mmol/kg i.v., rabbits
[22] = Small Intestine, 15 min after 0.08 mmol/kg i.v., rabbits
[23] = Small Intestine, 15 min after 0.10 mmol/kg i.v., 1 rabbit
[24] = Spleen, 15 min after 0.01 mmol/kg i.v., rabbits
[25] = Spleen, 15 min after 0.03 mmol/kg i.v., rabbits
[26] = Spleen, 15 min after 0.08 mmol/kg i.v., rabbits
[27] = Spleen, 15 min after 0.10 mmol/kg i.v., 1 rabbit
[28] = Stomach, 15 min after 0.01 mmol/kg i.v., rabbits
[29] = Stomach, 15 min after 0.03 mmol/kg i.v., rabbits
[30] = Stomach, 15 min after 0.08 mmol/kg i.v., rabbits
[31] = Stomach, 15 min after 0.10 mmol/kg i.v., 1 rabbit

## Cc1cccc(C)c1NC(=O)CN(CC(=O)[O-])CC(=O)O.Cc1cccc(C)c1NC(=O)CN(CC(=O)[O-])CC(=O)O.O.O.O.[Mn+2] [Example 2]
Lung, 15 min after 0.01 mmol/kg i.v., rabbits
  T2 relaxation time: 91 ms
[1]
  T1 relaxation time: 352 ms
  T2 relaxation time: 100 ms
[2]
  T1 relaxation time: 222 ms
  T2 relaxation time: 67 ms
[3]
  T1 relaxation time: 144 ms
  T2 relaxation time: 62 ms
Lung, rabbits
  Approximate ED50, intravenous dose to reduce tissue T1 by 50%: 0.075 mmol/kg
  Approximate ED50, intravenous dose to reduce tissue T2 by 50%: 0.15 mmol/kg
[4]
  T1 relaxation time: 225 ms
  T2 relaxation time: 66 ms
[5]
  T1 relaxation time: 104 ms
  T2 relaxation time: 118 ms
[6]
  T1 relaxation time: 101 ms
  T2 relaxation time: 70 ms
[7]
  T1 relaxation time: 149 ms
  T2 relaxation time: 69 ms
Pancreas, rabbits
  Approximate ED50, intravenous dose to reduce tissue T1 by 50%: 0.064 mmol/kg
[8]
  T1 relaxation time: 236 ms
  T2 relaxation time: 77 ms
[9]
  T1 relaxation time: 164 ms
  T2 relaxation time: 63 ms
[10]
  T1 relaxation time: 77 ms
  T2 relaxation time: 42 ms
[11]
  T1 relaxation time: 71 ms
  T2 relaxation time: 37 ms
[12]
  T1 relaxation time: 435 ms
  T2 relaxation time: 122 ms
[13]
  T1 relaxation time: 218 ms
  T2 relaxation time: 95 ms
[14]
  T1 relaxation time: 124 ms
  T2 relaxation time: 74 ms
[15]
  T1 relaxation time: 35 ms
  T2 relaxation time: 21 ms
Renal cortex, rabbits
  Approximate ED50, intravenous dose to reduce tissue T1 by 50%: 0.041 mmol/kg
  Approximate ED50, intravenous dose to reduce tissue T2 by 50%: 0.14 mmol/kg
Renal medulla, rabbits
  Approximate ED50, intravenous dose to reduce tissue T1 by 50%: 0.030 mmol/kg
  Approximate ED50, intravenous dose to reduce tissue T2 by 50%: 0.90 mmol/kg
[16]
  T1 relaxation time: 364 ms
  T2 relaxation time: 35 ms
[17]
  T1 relaxation time: 304 ms
  T2 relaxation time: 38 ms
[18]
  T1 relaxation time: 255 ms
  T2 relaxation time: 39 ms
[19]
  T1 relaxation time: 205 ms
  T2 relaxation time: 38 ms
Skeletal muscle, rabbits
  Approximate ED50, intravenous dose to reduce tissue T1 by 50%: 0.35 mmol/kg
[20]
  T1 relaxation time: 219 ms
  T2 relaxation time: 73 ms
[21]
  T1 relaxation time: 150 ms
  T2 relaxation time: 60 ms
[22]
  T1 relaxation time: 130 ms
  T2 relaxation time: 50 ms
[23]
  T1 relaxation time: 141 ms
  T2 relaxation time: 45 ms
Small Intestine, rabbits
  Approximate ED50, intravenous dose to reduce tissue T1 by 50%: 0.051 mmol/kg
  Approximate ED50, intravenous dose to reduce tissue T2 by 50%: 0.27 mmol/kg
[24]
  T1 relaxation time: 346 ms
  T2 relaxation time: 73 ms
[25]
  T1 relaxation time: 260 ms
  T2 relaxation time: 70 ms
[26]
  T1 relaxation time: 195 ms
  T2 relaxation time: 65 ms
[27]
  T1 relaxation time: 202 ms
  T2 relaxation time: 71 ms
Spleen, rabbits
  Approximate ED50, intravenous dose to reduce tissue T1 by 50%: 0.085 mmol/kg
[28]
  T1 relaxation time: 287 ms
  T2 relaxation time: 56 ms
[29]
  T1 relaxation time: 199 ms
  T2 relaxation time: 53 ms
[30]
  T1 relaxation time: 122 ms
  T2 relaxation time: 43 ms
[31]
  T1 relaxation time: 121 ms
  T2 relaxation time: 47 ms
Stomach, rabbits
  Approximate ED50, intravenous dose to reduce tissue T1 by 50%: 0.068 mmol/kg
  Approximate ED50, intravenous dose to reduce tissue T2 by 50%: 0.93 mmol/kg
Listed as dihydrogen bis(N-[N′-(2,6-dimethylphenyl)carbamoylmethyl]-iminodiaceto)manganese
  effect on hepatic and biliary T1 relaxation times: dramatically reduced
Listed as dihydrogen bis(N-[N′-(2,6-dimethylphenyl)carbamoylmethyl]iminodiaceto)-manganese
  effect on hepatic and biliary T1 relaxation times: dramatically reduces hepatic and biliary T1 relaxation times

Source: patent US6797255B1, “Methods and compositions for enhancing magnetic resonance imaging” (Mallinckrodt Inc., priority 1985, dated 2004)
